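Each compound was tested at five concentrations against cells in 96-well plates for 48 hours. TGI: total growth inhibition.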
Columns and labels:
Test in all cases: NCI-60 cell line screen, 48 h
[1] = test system: 786-0 renal
[2] = test system: A498 renal
[3] = test system: A549 NSCLC
[4] = test system: ACHN renal
[5] = test system: BT-549 breast
[6] = test system: CAKI-1 renal
[7] = test system: CCRF-CEM leukemia
[8] = test system: COLO 205 colon
[9] = test system: DU-145 prostate
[10] = test system: EKVX NSCLC
[11] = test system: HCC-2998 colon
[12] = test system: HCT-116 colon
[13] = test system: HCT-15 colon
[14] = test system: HL-60(TB) leukemia
[15] = test system: HOP-62 NSCLC
[16] = test system: HOP-92 NSCLC
[17] = test system: HS 578T breast
[18] = test system: HT29 colon
[19] = test system: IGROV1 ovarian
[20] = test system: K-562 leukemia
[21] = test system: KM12 colon
[22] = test system: LOX IMVI melanoma
[23] = test system: M14 melanoma
[24] = test system: MCF7 breast
[25] = test system: MDA-MB-231 breast
[26] = test system: MDA-MB-435
[27] = test system: MDA-N
[28] = test system: MOLT-4 leukemia
[29] = test system: NCI-H460 lung
[30] = test system: NCI/ADR-RES ovarian
[31] = test system: OVCAR-3 ovarian
[32] = test system: OVCAR-4 ovarian
[33] = test system: OVCAR-5 ovarian
[34] = test system: OVCAR-8 ovarian
[35] = test system: PC-3 prostate
[36] = test system: RPMI-8226 leukemia
[37] = test system: SF-268 CNS
[38] = test system: SF-295 CNS
[39] = test system: SF-539 CNS
[40] = test system: SK-MEL-2 melanoma
[41] = test system: SK-MEL-28 melanoma
[42] = test system: SK-MEL-5 melanoma
[43] = test system: SK-OV-3 ovarian
[44] = test system: SN12C renal
[45] = test system: SNB-19 CNS
[46] = test system: SNB-75 CNS
[47] = test system: SR leukemia
[48] = test system: SW-620 colon
[49] = test system: T-47D breast
[50] = test system: TK-10 renal
[51] = test system: U251 CNS
[52] = test system: UACC-257 melanoma
[53] = test system: UACC-62 melanoma
[54] = test system: UO-31 renal
[55] = test system: MALME-3M melanoma
[56] = test system: NCI-H226 lung
[57] = test system: NCI-H23 lung
[58] = test system: NCI-H522 lung
[59] = test system: RXF 393 renal

CC1CCC2C(C)C(OC(=O)CCC(=O)O)OC3OC4(C)CCC1C32OO4 (centres undefined)
TGI [1]: > 100 µM | TGI [2]: > 100 µM | TGI [3]: 29.9 µM | TGI [4]: 18.3 µM | TGI [5]: > 100 µM | TGI [6]: > 100 µM | TGI [7]: 36 µM | TGI [8]: 6.71 µM | TGI [9]: 63.4 µM | TGI [10]: 32.7 µM | TGI [11]: 54.3 µM | TGI [12]: 16.3 µM | TGI [13]: > 100 µM | TGI [14]: 4.65 µM | TGI [15]: > 100 µM | TGI [16]: 31 µM | TGI [17]: > 100 µM | TGI [18]: > 100 µM | TGI [19]: 23.1 µM | TGI [20]: 19.8 µM | TGI [21]: 23 µM | TGI [22]: 2.92 µM | TGI [23]: > 100 µM | TGI [24]: 28.5 µM | TGI [25]: > 100 µM | TGI [26]: 13.6 µM | TGI [27]: 38.7 µM | TGI [28]: 15 µM | TGI [29]: 33.4 µM | TGI [30]: > 100 µM | TGI [31]: > 100 µM | TGI [32]: 27.7 µM | TGI [33]: 57.8 µM | TGI [34]: > 100 µM | TGI [35]: > 100 µM | TGI [36]: 24.1 µM | TGI [37]: > 100 µM | TGI [38]: > 100 µM | TGI [39]: 29.1 µM | TGI [40]: 42.3 µM | TGI [41]: > 100 µM | TGI [42]: 17.7 µM | TGI [43]: > 100 µM | TGI [44]: > 100 µM | TGI [45]: > 100 µM | TGI [46]: > 100 µM | TGI [47]: 3.37 µM | TGI [48]: > 100 µM | TGI [49]: > 100 µM | TGI [50]: 14.7 µM | TGI [51]: 31.3 µM | TGI [52]: > 100 µM | TGI [53]: > 100 µM | TGI [54]: 3.88 µM

CC1=C(C)C2(C#N)C(=O)N3C(=NC(c4ccco4)NC3c3ccco3)C2(C#N)C(c2ccco2)N1 (centres undefined)
TGI [1]: > 100 µM | TGI [2]: > 100 µM | TGI [3]: > 100 µM | TGI [4]: > 100 µM | TGI [5]: > 100 µM | TGI [6]: > 100 µM | TGI [7]: > 100 µM | TGI [8]: > 100 µM | TGI [9]: > 100 µM | TGI [10]: > 100 µM | TGI [11]: > 100 µM | TGI [12]: > 100 µM | TGI [13]: > 100 µM | TGI [14]: > 100 µM | TGI [15]: > 100 µM | TGI [16]: > 100 µM | TGI [17]: > 100 µM | TGI [18]: > 100 µM | TGI [19]: > 100 µM | TGI [21]: > 100 µM | TGI [22]: > 100 µM | TGI [23]: > 100 µM | TGI [55]: > 100 µM | TGI [24]: > 100 µM | TGI [25]: > 100 µM | TGI [26]: > 100 µM | TGI [27]: > 100 µM | TGI [28]: > 100 µM | TGI [56]: > 100 µM | TGI [57]: > 100 µM | TGI [29]: > 100 µM | TGI [58]: > 100 µM | TGI [30]: > 100 µM | TGI [32]: > 100 µM | TGI [33]: > 100 µM | TGI [34]: > 100 µM | TGI [35]: > 100 µM | TGI [36]: > 100 µM | TGI [59]: > 100 µM | TGI [37]: > 100 µM | TGI [38]: > 100 µM | TGI [40]: > 100 µM | TGI [41]: > 100 µM | TGI [42]: > 100 µM | TGI [43]: > 100 µM | TGI [44]: > 100 µM | TGI [45]: > 100 µM | TGI [47]: > 100 µM | TGI [48]: > 100 µM | TGI [49]: > 100 µM | TGI [50]: > 100 µM | TGI [51]: > 100 µM | TGI [52]: > 100 µM | TGI [53]: > 100 µM | TGI [54]: > 100 µM
